In patent publication US9133206B2, “Benzodiazepine and pyridodiazepine derivatives” (AbbVie Inc., priority 2010, dated 2015):
pEC50: −log10 of the molar value.

System: SK-N-SH human neuroblastoma cells
Assay: Serum Deprivation/JC-1 Mitochondrial Membrane Potential (MMP) Assay
Format: cell-based
Details: for pEC50: serum deprivation ~18 hours, JC-1 ratio normalized to peak value for 10 μM dimebolin, single curve fit to mean data of n=2-3; for Emax: read-out: JC-1 max %; for activation at 3 µM: single dose 3 μM, JC-1 ratio normalized to peak value for 10 μM dimebolin (n=2-4), read-out: JC-1 max % (@ 3 μM)
Procedure, shortened: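 SK-N-SH cells serum-deprived ~18 h with compound, then stained with JC-1 for 40 min at 37 °C; red (560/595 nm) to green (485/535 nm) ratio reports membrane potential. Response normalized to peak from 10 μM dimebolin; EC50 from fit to mean of n=2–3, or single-dose 3 μM; DMSO ≤1%.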

[1] = Homo sapiens, SK-N-SH, percent maximal intensity in JC-1 ratio normalized to peak value for 10 μM dimebolin, serum deprivation
[2] = Homo sapiens, serum deprivation

Row | SMILES | pEC50 (Homo sapiens, SK-N-SH, 18 h) | Emax [1] [%] | activation at 3 µM [2] [%] | also measured
1 | CC1(C(=O)N2Cc3ccccc3N3CCN(Cc4ccccc4)CC3C2)CC1 (centres unmarked) [Example 114, (3-benzyl-1,2,3,4,4a,5-hexahydropyrazino[1,2-a][1,4]benzodiazepin-6(7H)-yl)(1-methylcyclopropyl)methanone] | 5.36 | 201 |  | 
2 | O=C(C1CCC1)N1Cc2ccccc2N2CCN(Cc3ccccc3)CC2C1 (centres unmarked) [Example 115, (3-benzyl-1,2,3,4,4a,5-hexahydropyrazino[1,2-a][1,4]benzodiazepin-6(7H)-yl)(cyclobutyl)methanone] | 5.90 | 177 |  | 
3 | CC1CC1C(=O)N1Cc2ccccc2N2CCN(Cc3ccccc3)CC2C1 (centres unmarked) [Example 116, (3-benzyl-1,2,3,4,4a,5-hexahydropyrazino[1,2-a][1,4]benzodiazepin-6(7H)-yl)(2-methylcyclopropyl)methanone] |  |  | 198 | 
4 | O=C(CC(F)(F)F)N1Cc2ccccc2N2CCN(Cc3ccccc3)CC2C1 (centres unmarked) [Example 117, 1-(3-benzyl-1,2,3,4,4a,5-hexahydropyrazino[1,2-a][1,4]benzodiazepin-6(7H)-yl)-3,3,3-trifluoropropan-1-one] |  |  | 70 | 
5 | O=C(C1CCCO1)N1Cc2ccccc2N2CCN(Cc3ccccc3)CC2C1 (centres unmarked) [Example 118, (3-benzyl-1,2,3,4,4a,5-hexahydropyrazino[1,2-a][1,4]benzodiazepin-6(7H)-yl)(tetrahydrofuran-2-yl)methanone] |  |  | 84 | 
6 | COc1ccc(CN2Cc3ccccc3N3CCN(Cc4ccccc4)CC3C2)cc1C (centres unmarked) [Example 119, 3-benzyl-6-(4-methoxy-3-methylbenzyl)-1,2,3,4,4a,5,6,7-octahydropyrazino[1,2-a][1,4]benzodiazepine] | 5.40 | 172 |  | 
7 | Cc1cc(CN2Cc3ccccc3N3CCN(Cc4ccccc4)CC3C2)oc1C (centres unmarked) [Example 120, 3-benzyl-6-[(4,5-dimethyl-2-furyl)methyl]-1,2,3,4,4a,5,6,7-octahydropyrazino[1,2-a][1,4]benzodiazepine] |  |  | -5 | 
8 | CCOc1ccc(CN2Cc3ccccc3N3CCN(Cc4ccccc4)CC3C2)cc1 (centres unmarked) [Example 121, 3-benzyl-6-(4-ethoxybenzyl)-1,2,3,4,4a,5,6,7-octahydropyrazino[1,2-a][1,4]benzodiazepine] | 5.38 | 167 |  | 
9 | Cc1ccc(CN2Cc3ccccc3N3CCN(Cc4ccccc4)CC3C2)s1 (centres unmarked) [Example 122, 3-benzyl-6-[(5-methyl-2-thienyl)methyl]-1,2,3,4,4a,5,6,7-octahydropyrazino[1,2-a][1,4]benzodiazepine] | 5.47 | 133 |  | 
10 | Brc1ccc(CN2Cc3ccccc3N3CCN(Cc4ccccc4)CC3C2)cc1 (centres unmarked) [Example 123, 3-benzyl-6-(4-bromobenzyl)-1,2,3,4,4a,5,6,7-octahydropyrazino[1,2-a][1,4]benzodiazepine] |  |  |  | JC-1 max % (percent maximal intensity in JC-1 ratio normalized to peak value for 10 μM dimebolin, serum deprivation): 186%; pEC50: 5.46
11 | c1ccc(CN2CCN3c4ccccc4CN(Cc4ccc5ccccc5c4)CC3C2)cc1 (centres unmarked) [Example 124, 3-benzyl-6-(2-naphthylmethyl)-1,2,3,4,4a,5,6,7-octahydropyrazino[1,2-a][1,4]benzodiazepine] | 5.46 | 193 |  | 
12 | c1ccc(CN2CCN3c4ccccc4CN(CC4CCCC4)CC3C2)cc1 (centres unmarked) [Example 125, 3-benzyl-6-(cyclopentylmethyl)-1,2,3,4,4a,5,6,7-octahydropyrazino[1,2-a][1,4]benzodiazepine] | 5.37 | 98 |  | 
13 | c1ccc(CN2CCN3c4ccccc4CN(Cc4ccc5ccccc5n4)CC3C2)cc1 (centres unmarked) [Example 126, 3-benzyl-6-(quinolin-2-ylmethyl)-1,2,3,4,4a,5,6,7-octahydropyrazino[1,2-a][1,4]benzodiazepine] | 5.72 | 150 |  | 
14 | CCc1ccc(CN2Cc3ccccc3N3CCN(Cc4ccccc4)CC3C2)o1 (centres unmarked) [Example 127, 3-benzyl-6-[(5-ethyl-2-furyl)methyl]-1,2,3,4,4a,5,6,7-octahydropyrazino[1,2-a][1,4]benzodiazepine] |  |  | 26 | 
15 | N#Cc1ccc(CN2Cc3ccccc3N3CCN(Cc4ccccc4)CC3C2)cc1 (centres unmarked) [Example 128, 4-[(3-benzyl-1,2,3,4,4a,5-hexahydropyrazino[1,2-a][1,4]benzodiazepin-6(7H)-yl)methyl]benzonitrile] | 5.37 | 168 |  | 
16 | CCCCN1Cc2ccccc2N2CCN(Cc3ccccc3)CC2C1 (centres unmarked) [Example 129, 3-benzyl-6-butyl-1,2,3,4,4a,5,6,7-octahydropyrazino[1,2-a][1,4]benzodiazepine] |  |  | 40 | 
17 | Clc1ccc(CN2Cc3ccccc3N3CCN(Cc4ccccc4)CC3C2)cc1 (centres unmarked) [Example 130, 3-benzyl-6-(4-chlorobenzyl)-1,2,3,4,4a,5,6,7-octahydropyrazino[1,2-a][1,4]benzodiazepine] | 5.40 | 181 |  | 
18 | Cc1ccccc1CN1Cc2ccccc2N2CCN(Cc3ccccc3)CC2C1 (centres unmarked) [Example 131, 3-benzyl-6-(2-methylbenzyl)-1,2,3,4,4a,5,6,7-octahydropyrazino[1,2-a][1,4]benzodiazepine] | 5.49 | 144 |  | 

Row | SMILES | pEC50 (Homo sapiens, SK-N-SH, 18 h) | Emax [1] [%] | activation at 3 µM [2] [%] | also measured
19 | Brc1ccccc1CN1Cc2ccccc2N2CCN(Cc3ccccc3)CC2C1 (centres unmarked) [Example 132, 3-benzyl-6-(2-bromobenzyl)-1,2,3,4,4a,5,6,7-octahydropyrazino[1,2-a][1,4]benzodiazepine] | 5.48 | 192 |  | 
20 | COc1ccccc1CN1Cc2ccccc2N2CCN(Cc3ccccc3)CC2C1 (centres unmarked) [Example 133, 3-benzyl-6-(2-methoxybenzyl)-1,2,3,4,4a,5,6,7-octahydropyrazino[1,2-a][1,4]benzodiazepine] | 5.44 | 163 |  | 
21 | COc1ccc(CN2Cc3ccccc3N3CCN(Cc4ccccc4)CC3C2)cc1 (centres unmarked) [Example 134, 3-benzyl-6-(4-methoxybenzyl)-1,2,3,4,4a,5,6,7-octahydropyrazino[1,2-a][1,4]benzodiazepine] | 5.45 | 163 |  | 
22 | COc1cccc(CN2Cc3ccccc3N3CCN(Cc4ccccc4)CC3C2)c1 (centres unmarked) [Example 135, 3-benzyl-6-(3-methoxybenzyl)-1,2,3,4,4a,5,6,7-octahydropyrazino[1,2-a][1,4]benzodiazepine] | 5.38 | 154 |  | 
23 | Brc1cccc(CN2Cc3ccccc3N3CCN(Cc4ccccc4)CC3C2)c1 (centres unmarked) [Example 136, 3-benzyl-6-(3-bromobenzyl)-1,2,3,4,4a,5,6,7-octahydropyrazino[1,2-a][1,4]benzodiazepine] | 5.66 | 172 |  | 
24 | Cc1ccc(CN2Cc3ccccc3N3CCN(Cc4ccccc4)CC3C2)cc1 (centres unmarked) [Example 137, 3-benzyl-6-(4-methylbenzyl)-1,2,3,4,4a,5,6,7-octahydropyrazino[1,2-a][1,4]benzodiazepine] | 5.48 | 143 |  | 
25 | c1ccc(CN2CCN3c4ccccc4CN(Cc4cccc5ccccc45)CC3C2)cc1 (centres unmarked) [Example 138, 3-benzyl-6-(1-naphthylmethyl)-1,2,3,4,4a,5,6,7-octahydropyrazino[1,2-a][1,4]benzodiazepine] | 5.74 | 203 |  | 
26 | Clc1ccccc1CN1Cc2ccccc2N2CCN(Cc3ccccc3)CC2C1 (centres unmarked) [Example 139, 3-benzyl-6-(2-chlorobenzyl)-1,2,3,4,4a,5,6,7-octahydropyrazino[1,2-a][1,4]benzodiazepine] | 5.50 | 145 |  | 
27 | Clc1cccc(CN2Cc3ccccc3N3CCN(Cc4ccccc4)CC3C2)c1 (centres unmarked) [Example 140, 3-benzyl-6-(3-chlorobenzyl)-1,2,3,4,4a,5,6,7-octahydropyrazino[1,2-a][1,4]benzodiazepine] | 5.44 | 189 |  | 
28 | CC(C)(C)CN1Cc2ccccc2N2CCN(Cc3ccccc3)CC2C1 (centres unmarked) [Example 141, 3-benzyl-6-(2,2-dimethylpropyl)-1,2,3,4,4a,5,6,7-octahydropyrazino[1,2-a][1,4]benzodiazepine] |  |  | 12 | 
29 | Cc1ccsc1CN1Cc2ccccc2N2CCN(Cc3ccccc3)CC2C1 (centres unmarked) [Example 142, 3-benzyl-6-[(3-methyl-2-thienyl)methyl]-1,2,3,4,4a,5,6,7-octahydropyrazino[1,2-a][1,4]benzodiazepine] |  |  | 13 | 
30 | CC(C)CCN1Cc2ccccc2N2CCN(Cc3ccccc3)CC2C1 (centres unmarked) [Example 143, 3-benzyl-6-(3-methylbutyl)-1,2,3,4,4a,5,6,7-octahydropyrazino[1,2-a][1,4]benzodiazepine] |  |  | 30 | 
31 | c1ccc(CN2CCN3c4ccccc4CN(CC4CCCCC4)CC3C2)cc1 (centres unmarked) [Example 144, 3-benzyl-6-(cyclohexylmethyl)-1,2,3,4,4a,5,6,7-octahydropyrazino[1,2-a][1,4]benzodiazepine] | 5.44 | 132 |  | 
32 | Cc1cccc(CN2Cc3ccccc3N3CCN(Cc4ccccc4)CC3C2)c1 (centres unmarked) [Example 145, 3-benzyl-6-(3-methylbenzyl),-1,2,3,4,4a,5,6,7-octahydropyrazino[1,2-a][1,4]benzodiazepine] | 5.50 | 151 |  | 
33 | N#Cc1cccc(CN2Cc3ccccc3N3CCN(Cc4ccccc4)CC3C2)c1 (centres unmarked) [Example 146, 3-[(3-benzyl-1,2,3,4,4a,5-hexahydropyrazino[1,2-a][1,4]benzodiazepin-6(7H)-yl)methyl]benzonitrile] | 5.66 | 182 |  | 
34 | c1ccc(CN2CCN3c4ccccc4CN(Cc4cccs4)CC3C2)cc1 (centres unmarked) [Example 147, 3-benzyl-6-(2-thienylmethyl)-1,2,3,4,4a,5,6,7-octahydropyrazino[1,2-a][1,4]benzodiazepine] |  |  | 1.7 | 
35 | CC(C)CN1Cc2ccccc2N2CCN(Cc3ccccc3)CC2C1 (centres unmarked) [Example 148, 3-benzyl-6-isobutyl-1,2,3,4,4a,5,6,7-octahydropyrazino[1,2-a][1,4]benzodiazepine] |  |  | 38 | 
